In US11007269B2, “P53 degradation inducing molecule and pharmaceutical composition” (Tokyo University of Science Foundation, priority 2016, dated 2021):

Target: T1, endogenous wild-type p53 protein (Mus musculus, UniProt P02340)
T1 construct: from tissue; host or cells: liver of C57BL/6J wild-type mice
Assay: Western blot of wild-type p53 protein in liver of mice given the compound
Type: in vivo
Conditions: C57BL/6J mice, 48 hours after administration
Description: In Example 4, degradation (knockdown) of the endogenous wild-type p53 protein and MDM2 protein in mouse individuals in which TIBC-CANDDY_MLN had been administered was evaluated by Western blot analysis.
TIBC-CANDDY_MLN was dissolved in DMSO immediately before administration, and then dissolved in corn oil (Code No. 25606-55, Nacalai Tesque) so that the concentration of DMSO was 10 vol %, and then a dose of 50 mg/kg body weight or 100 mg/kg body weight was administered intraperitoneally to C57BL/6J wild-type mice (7 to 8 weeks old, male) (CLEA Japan, Inc.) (n=3). As a control, an injection carrier (corn oil containing 10 vol % DMSO) was used. The mice were kept under an environment of ad libitum access to food and water. […]
The frozen tissue (0.04 g) was triturated, and then 980 μL of 1×TKM tissue lysis buffer (50 mM triethanolamine (pH 7.8), 50 mM KCl, 5 mM MgCl2, 0.25 M sucrose, 1 mM PMSF, protein inhibitors cocktail-EDTA free (Code No. 03969-21, Nacalai Tesque), 1 mM DTT, Recombinant RNase inhibitor 5 μl/mL (40 U/μl, Cat No. 2313A, Lot No. K8402DA, TAKARA Bio)) was added, and dissolved by rotation for 15 minutes (1 rpm, 25° C.). […] The concentration of proteins in the tissue extract was quantified with a spectrophotometer with the tissue extract that had been diluted 20 times using DEPC-treated water. […]

T1 sequence (P02340 whole entry): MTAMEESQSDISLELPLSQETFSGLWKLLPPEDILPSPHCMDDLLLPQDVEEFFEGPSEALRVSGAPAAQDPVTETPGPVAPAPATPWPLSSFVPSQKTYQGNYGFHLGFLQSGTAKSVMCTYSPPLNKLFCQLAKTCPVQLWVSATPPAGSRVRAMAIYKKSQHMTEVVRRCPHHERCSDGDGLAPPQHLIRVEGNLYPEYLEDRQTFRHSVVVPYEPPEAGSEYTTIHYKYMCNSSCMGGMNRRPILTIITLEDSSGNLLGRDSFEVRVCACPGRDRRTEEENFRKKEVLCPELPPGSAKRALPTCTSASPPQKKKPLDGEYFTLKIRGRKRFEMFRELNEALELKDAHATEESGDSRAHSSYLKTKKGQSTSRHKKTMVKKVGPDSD

CC(C)C[C@H](NC(=O)CNC(=O)c1cc(Cl)ccc1Cl)C(=O)NCCCCCCC(=O)Nc1ccc(C(=O)/C=C/c2ccc(I)cc2)cc1 [TIBC-CANDDY_MLN]
amount of endogenous wild-type p53 protein in the liver (50 mg/kg body weight intraperitoneally): reduced | amount of endogenous wild-type p53 protein in the liver (100 mg/kg body weight intraperitoneally): reduced
